Assay results from US6656956B2, “Benzimidazole derivatives, processes for preparing them and their use as pharmaceutical compositions” (Boehringer Ingelheim Pharma KG, priority 2001, dated 2003).
Counter-ions that a name gives are not always drawn.

Biological target: T1, rh beta tryptase (Homo sapiens, UniProt Q15661)
T1 construct: purchased Promega
Assay: tryptase inhibition in vitro test (cleavage of N-p-tosyl-Gly-Pro-Lys-para-nitroaniline, p-nitroaniline measured at 405 nm)
Type: biochemical
Conditions: rh beta tryptase 0.91 U/ml, substrate 0.6 mM, Tris HCl buffer with calcium and heparin, pH 7.4, 37° C., 5 minutes incubation; read-out: Tryptase-inhibiting activity
Experimental: The compounds according to the invention are characterised by their tryptase-inhibiting activity. This ability to inhibit tryptase was investigated using the test described below.
The measurement is carried out in Tris HCl buffer (100 mM), which additionally contains calcium (5 mM) and heparin ([…]), at pH 7.4. The standard used is rh beta tryptase which may be obtained commercially from Promega, for example. The substrate used is N-p-tosyl-Gly-Pro-Lys-para-nitroaniline in a concentration of 0.6 mM. The substrate is digested with tryptase to form p-nitroaniline which can be measured at 405 nm. Usually, an incubation period of 5 minutes and an incubation temperature of 37° C. are chosen. The enzyme activity used is 0.91 U/ml. The measurements are carried out in an Autoanalyser (Cobas Bio) made by Hofmann LaRoche. The potential inhibitory substances are used in concentrations of 10 μM in the screening, the inhibition of the tryptase being given in percent. The IC50 is determined at over 70% inhibition (concentration at which 50% of the enzyme activity is inhibited). After 5 minutes' pre-incubation of the potential inhibitory substances, the substrate is added to start the reaction, the formation of p-nitroaniline being taken as a measurement of the enzyme activity after 5 minutes, after testing the linearity.

T1 sequence (Q15661 31-275): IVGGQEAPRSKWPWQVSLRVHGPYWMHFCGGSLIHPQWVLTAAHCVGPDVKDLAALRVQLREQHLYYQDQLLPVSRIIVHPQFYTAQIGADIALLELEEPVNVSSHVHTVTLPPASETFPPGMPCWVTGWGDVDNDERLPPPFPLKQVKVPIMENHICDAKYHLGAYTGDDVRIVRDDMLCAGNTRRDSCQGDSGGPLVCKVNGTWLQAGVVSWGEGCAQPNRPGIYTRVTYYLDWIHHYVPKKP

Compound: CN(c1ccccn1)C1CCN(CC(=O)N(Cc2cccc3ccccc23)c2ccc3c(c2)nc(CCc2ccc(C(=N)N)cc2)n3C)CC1 [Example 19, N-{2-[2-(4-Amidinophenyl)-ethyl]-1-methyl-benzimidazol-5-yl}-N-[naphth-1-ylmethyl]-2-[4-(2-pyridyl-N-methyl-amino)-piperid-1-yl]-acetamide, dihydrochloride]
- IC50: 4 to 30 nM

Compound: CN(C(=O)CN1CCC(Nc2ccc(Cl)cc2Br)CC1)c1ccc2c(c1)nc(CCc1ccc(C(=N)N)cc1)n2C [Example 65, N-{2-[2-(4-Amidinophenyl)-ethyl]-1-methyl-benzimidazol-5-yl}-N-methyl-2-[4-(2-bromo-4-chloroamino)-piperid-1-yl]-acetamide, dihydrochloride]
- IC50: 0.5 to 3 nM

Compound: CN(C(=O)CN1CCC(Nc2ccccc2I)CC1)c1ccc2c(c1)nc(CCc1ccc(C(=N)N)cc1)n2C [Example 37, N-{2-[2-(4-Amidinophenyl)-ethyl]-1-methyl-benzimidazol-5-yl}-N-methyl-2-[4-(2-iodophenylamino)-piperid-1-yl]-acetamide, dihydrochloride]
- IC50: 0.5 to 3 nM

Compound: Cn1c(CCc2ccc(C(=N)N)cc2)nc2cc(N(Cc3cccc4ccccc34)C(=O)CN3CCC(Nc4ccc(-c5ccccc5)cc4)CC3)ccc21 [Example 23, N-{2-[2-(4-Amidinophenyl)-ethyl]-1-methyl-benzimidazol-5-yl}-N-[naphth-1-ylmethyl]-2-[4-(4-biphenylamino)-piperid-1-yl]-acetamide, dihydrochloride]
- IC50: 4 to 30 nM

Compound: Cn1c(CCc2ccc(C(=N)N)cc2)nc2cc(N(Cc3cccc4ccccc34)C(=O)CN3CCC(C(=O)c4ccccc4)CC3)ccc21 [Example 24, N-{2-[2-(4-Amidinophenyl)-ethyl]-1-methyl-benzimidazol-5-yl}-N-[naphth-1-ylmethyl]-2-[4-(phenylcarbonyl)-piperid-1-yl]-acetamide, dihydrochloride]
- IC50: 0.5 to 3 nM

Compound: Cn1c(CCc2ccc(C(=N)N)cc2)nc2cc(N(Cc3ccc(C(C)(C)C)cc3)C(=O)CN3CCC(Nc4ccccn4)CC3)ccc21 [Example 3, N-{2-[2-(4-Amidinophenyl)-ethyl]-1-methyl-benzimidazol-5-yl}-N-(4-tert-butylphenylmethyl)-2-[4-(2-pyridylamino)-piperid-1-yl]-acetamide, Dihydrochloride]
- IC50: 4 to 30 nM

Compound: Cn1c(CCc2ccc(C(=N)N)cc2)nc2cc(N(Cc3cccc(N)c3)C(=O)CN3CCC(Nc4ccccn4)CC3)ccc21 [Example 55, N-{2-[2-(4-Amidinophenyl)-ethyl]-1-methyl-benzimidazol-5-yl}-N-[3-aminophenyl-methyl]-2-[4-(2-pyridylamino)-piperid-1-yl]-acetamide, dihydrochloride]
- IC50: 4 to 30 nM

Compound: CN(C(=O)CN1CCC(Nc2ccccc2Cl)CC1)c1ccc2c(c1)nc(CCc1ccc(C(=N)N)cc1)n2C [Example 31, N-{2-[2-(4-Amidinophenyl)-ethyl]-1-methyl-benzimidazol-5-yl}-N-methyl-2-[4-(2-chlorophenylamino)-piperid-1-yl]-acetamide, dihydrochloride]
- IC50: 0.5 to 3 nM

Compound: CN(C(=O)CN1CCC(Nc2ccc(Cl)cc2Cl)CC1)c1ccc2c(c1)nc(CCc1ccc(C(=N)N)cc1)n2C [Example 32, N-{2-[2-(4-Amidinophenyl)-ethyl]-1-methyl-benzimidazol-5-yl}-N-methyl-2-[4-(2,4-dichlorophenylamino)-piperid-1-yl]-acetamide, dihydrochloride]
- IC50: 0.5 to 3 nM

Compound: CN(C(=O)CN1CCC(Nc2ccc(Cl)cc2)CC1)c1ccc2c(c1)nc(CCc1ccc(C(=N)N)cc1)n2C [Example 105, N-{2-[2-(4-Amidinophenyl)-ethyl]-1-methyl-benzimidazol-5-yl}-N-methyl-2-[4-(4-chlorophenylamino)-piperid-1-yl]-acetamide, dihydrochloride]
- IC50: 0.5 to 3 nM

Compound: Cn1c(CCc2ccc(C(=N)N)cc2)nc2cc(N(Cc3ccncc3)C(=O)CN3CCC(Nc4ccccn4)CC3)ccc21 [Example 46, N-{2-[2-(4-Amidinophenyl)-ethyl]-1-methyl-benzimidazol-5-yl}-N-[4-pyridylmethyl]-2-[4-(2-pyridylamino)-piperid-1-yl]-acetamide, dihydrochloride]
- IC50: 4 to 30 nM

Compound: CN(CCCO)C1CCN(CC(=O)N(Cc2cccc3ccccc23)c2ccc3c(c2)nc(CCc2ccc(C(=N)N)cc2)n3C)CC1 [Example 2, N-{2-[2-(4-Amidinophenyl)-ethyl]-1-methyl-benzimidazol-5-yl}-N-[naphth-1-ylmethyl]-2-{4-[N-methyl-N-(3-hydroxypropyl)-amino]-piperid-1-yl}-acetamide, Trihydrochloride]
- IC50: 4 to 30 nM

Compound: CN(C(=O)CN1CCC(Nc2ccccc2OC(F)(F)F)CC1)c1ccc2c(c1)nc(CCc1ccc(C(=N)N)cc1)n2C [Example 39, N-{2-[2-(4-Amidinophenyl)-ethyl]-1-methyl-benzimidazol-5-yl}-N-methyl-2-[4-(2-trifluoromethoxyphenylamino)-piperid-1-yl]-acetamide, dihydrochloride]
- IC50: 4 to 30 nM

Compound: Cn1c(CCc2ccc(C(=N)N)cc2)nc2cc(N(Cc3cccc4ccccc34)C(=O)NC3CCC(Nc4ccccn4)CC3)ccc21 (centres unmarked) [Example 76, N-{2-[2-(4-Amidinophenyl)-ethyl]-1-methyl-benzimidazol-5-yl}-N-[naphth-1-ylmethyl]-N′-[4-(2-pyridyl)-amino-cyclohexyl)-urea, hydrochloride]
- IC50: 31 to 1000 nM

Compound: CN(C(=O)CN1CCC(Nc2ccc(F)cc2Cl)CC1)c1ccc2c(c1)nc(CCc1ccc(CN)cc1)n2C [Example 84, Ditrifluoroacetate]
- IC50: 4 to 30 nM

Compound: CN(C(=O)CN1CCC(Nc2ccc3ccccc3c2)CC1)c1ccc2c(c1)nc(CCc1ccc(C(=N)N)cc1)n2C [Example 30, N-{2-[2-(4-Amidinophenyl)-ethyl]-1-methyl-benzimidazol-5-yl}-N-methyl-2-[4-(2-naphthylamino)-piperid-1-yl]-acetamide, dihydrochloride]
- IC50: 0.5 to 3 nM

Compound: Cn1c(CCc2ccc(C(=N)N)cc2)nc2cc(N(Cc3cccc4ccccc34)C(=O)Nc3cccc(Cl)c3)ccc21 [Example 74, N-{2-[2-(4-Amidinophenyl)-ethyl]-1-methyl-benzimidazol-5-yl}-N-[naphth-1-ylmethyl]-N′-(3-chloro)-phenyl, hydrochloride]
- IC50: 31 to 1000 nM

Compound: Cn1c(CCc2ccc(C(=N)N)cc2)nc2cc(N(Cc3cccc4ccccc34)C(=O)CN3CCC(Nc4ccccc4)CC3)ccc21 [Example 1, N-{2-[2-(4-Amidinophenyl)-ethyl]-1-methyl-benzimidazol-5-yl}-N-[naphth-1-ylmethyl]-2-(4-phenylamino-piperid-1-yl)-acetamide, Dihydrochloride]
- IC50: 4 to 30 nM

Compound: CN(C(=O)CN1CCC(Nc2ccc(Cl)c(Cl)c2)CC1)c1ccc2c(c1)nc(CCc1ccc(C(=N)N)cc1)n2C [Example 107, N-{2-[2-(4-Amidinophenyl)-ethyl]-1-methyl-benzimidazol-5-yl}-N-methyl-2-[4-(3,4-dichlorophenylamino)-piperid-1-yl]-acetamide, dihydrochloride]
- IC50: 0.5 to 3 nM

Compound: N-{2-[2-(4-Amidinophenyl)-ethyl]-1-methyl-benzimidazol-5- yl}-N-[ethanecarboxylic acid]-2-[4-(2-pyridylamino)-piperid- 1-yl]-acetamide, dihydrochloride [Example 54]
- IC50: 4 to 30 nM

Compound: Cc1ccccc1NC1CCN(CC(=O)N(C)c2ccc3c(c2)nc(CCc2ccc(C(=N)N)cc2)n3C)CC1 [Example 63, dihydrochloride]
- IC50: 4 to 30 nM

Compound: Cn1c(CCc2ccc(C(=N)N)cc2)nc2cc(N(Cc3cccc4ccccc34)C(=O)CN3CCC(Nc4cccc(Cl)c4)CC3)ccc21 [Example 11, N-{2-[2-(4-Amidinophenyl)-ethyl]-1-methyl-benzimidazol-5-yl}-N-[naphth-1-ylmethyl]-2-[4-(3-chlorophenylamino)-piperid-1-yl]-acetamide, dihydrochloride]
- IC50: 0.5 to 3 nM

Compound: CN(C(=O)CN1CCC(Nc2ccc(C(C)(C)C)cc2Cl)CC1)c1ccc2c(c1)nc(CCc1ccc(C(=N)N)cc1)n2C [Example 69, N-{2-[2-(4-Amidinophenyl)-ethyl]-1-methyl-benzimidazol-5-yl}-N-methyl-2-[4-(2-chloro-4-tert.butylamino)-piperid-1-yl]-acetamide, dihydrochloride]
- IC50: 31 to 1000 nM

Compound: Cn1c(CCc2ccc(C(=N)N)cc2)nc2cc(N(Cc3cccc4ccccc34)C(=O)CN3CCC(Nc4cccnc4)CC3)ccc21 [Example 26, N-{2-[2-(4-Amidinophenyl)-ethyl]-1-methyl-benzimidazol-5-yl}-N-[naphth-1-ylmethyl]-2-[4-(3-pyridylamino)-piperid-1-yl]-acetamide, dihydrochloride]
- IC50: 0.5 to 3 nM

Compound: CN(C(=O)CN1CCC(N(C)c2ccc3ccccc3c2)CC1)c1ccc2c(c1)nc(CCc1ccc(C(=N)N)cc1)n2C [Example 34, N-{2-[2-(4-Amidinophenyl)-ethyl]-1-methyl-benzimidazol-5-yl}-N-methyl-2-[4-(2-naphthyl-N-methylamino)-piperid-1-yl]-acetamide, dihydrochloride]
- IC50: 4 to 30 nM

Compound: COc1cccc(NC(=O)N(Cc2cccc3ccccc23)c2ccc3c(c2)nc(CCc2ccc(C(=N)N)cc2)n3C)c1 [Example 73, N-{2-[2-(4-Amidinophenyl)-ethyl]-1-methyl-benzimidazol-5-yl}-N-[naphth-1-ylmethyl]-N′-(3-methoxy)-phenyl, hydrochloride]
- IC50: 31 to 1000 nM
